Assay results as given in US4603128A, “Mineralocorticoid hormone antagonists” (priority 1984, dated 1986).
Where two headings read alike, the source gives them in different places.

Key:
adrenalectomized rat = test: Mineralocorticoid antagonism in vivo, adrenalectomized rat assay (urinary Na/K); conditions: for In vivo antagonist activity compared with corresponding 7α-propionylthio derivative (Controls A, B, C, D): same substituents at C-21
Experimental: The bioassay for anti-mineralocorticoid activity was carried out as described for the assay of mineralocorticoid agonist activity by Ulick, Land and Chu, (Endocrinology 99:619, 1976), except that the control group received 1 μg of aldosterone per 100 g body weight and the experimental group received the test substance in addition. All results were expressed as ratio of control urinary Na/K to treatment urinary Na/K. The minimum effective dose of antagonist was defined as that amount of test substance required to block one-half of the effect of 1 μg. aldosterone/100 g body weight as measured by the ratio of control: treatment urinary Na/K.

[1] = system: mineralocorticoid receptor of mammalian kidney; test: Mineralocorticoid receptor affinity (competition with 3H-aldosterone); type: binding; conditions: for Corticosteroid Receptor Affinity % Mineralocorticoid: amount of aldosterone vs amount of steroid for 50% reduction in binding of 1.3×10^-9 M 3H-aldosterone, kidney cytosol, aldosterone = 100; for Affinity Mineralocorticoid:Androgen Ratio: ratio of mineralocorticoid to androgen receptor affinity (therapeutic index)
Experimental: Each assay tube contained 250 μl cytosol solution and 1,2-^3 H-aldosterone at a final steroid concentration of 1.3×10^-9 M. Standard curves were prepared in the range of 0.1 to 100 ng aldosterone and non-specific binding of 10^-5 M aldosterone was subtracted. The amount of steroid ligand required to effect 50% reduction in the binding of labeled aldosterone compared to the amount of aldosterone to effect the same reduction was expressed as a percentage.

[2] = subcutaneous, with 1 μg aldosterone per 100 g body weight, dose reducing urinary Na/K effect to one half, inactive = no antagonist activity at 250 μg/100 g
[3] = Rattus norvegicus, sc, subcutaneous, with 1 μg aldosterone per 100 g body weight, dose reducing urinary Na/K effect to one half, inactive = no antagonist activity at 250 μg/100 g, read-out: Mineralocorticoid antagonism Minimum effective dose
[4] = oral route, adrenalectomized rat, read-out: Mineralocorticoid antagonism Minimum effective dose oral

Row | Structure (SMILES) | Corticosteroid Receptor Affinity % Mineralocorticoid [1] | Affinity Mineralocorticoid:Androgen Ratio [1] | ED50 (adrenalectomized rat; [3]) | other results
1 | CC(=O)OCC(=O)[C@@]1(O)CC[C@H]2[C@H]3[C@H]([C@@H](O)C[C@@]21C)[C@@]1(C)CCC(=O)C=C1C[C@H]3SC(C)=O [Control E, 7α-Acetylthio-21-acetoxy-11β-dihydroxy-4-pregnene-3,20-dione, reference compound] |  |  |  | Mineralocorticoid antagonism Minimum effective dose (adrenalectomized rat; [2]): inactive
2 | CCC(=O)OCC(=O)[C@H]1CC[C@H]2[C@@H]3[C@H](SC(C)=O)CC4=CC(=O)CC[C@]4(C)[C@H]3CC[C@]12C [Example 4] | 38% | 190 | 1 mg/kg | 
3 | C[C@]12CCC(=O)C=C1CC[C@@H]1[C@@H]2[C@@H](O)C[C@]2(C=O)[C@@H](C(=O)CO)CC[C@@H]12 [Aldosterone, reference compound] | 100% |  |  | 
4 | CCCCCCC(=O)OCC(=O)[C@H]1CC[C@H]2[C@@H]3[C@H](SC(C)=O)CC4=CC(=O)CC[C@]4(C)[C@H]3CC[C@]12C [Example 7] | 27% | 180 | 0.75 mg/kg | In vivo antagonist activity compared with corresponding 7α-propionylthio derivative (Controls A, B, C, D) (adrenalectomized rat): always more active
5 | CCCCCCC(=O)OCC(=O)[C@H]1CC[C@H]2[C@@H]3[C@H](SC(=O)CC)CC4=CC(=O)CC[C@]4(C)[C@H]3CC[C@]12C [Control D, 7α-Propionylthio-21-heptanoyloxy-4-pregnene-3,20-dione, reference compound] |  |  |  | Mineralocorticoid antagonism Minimum effective dose (adrenalectomized rat; [2]): inactive
6 | CCC(=O)S[C@@H]1CC2=CC(=O)CC[C@]2(C)[C@H]2CC[C@]3(C)[C@@H](C(C)=O)CC[C@H]3[C@H]12 [Control A, 7α-Propionylthio-4-pregnene-3,20-dione, reference compound] |  |  | 2 mg/kg | 
7 | CC(=O)S[C@@H]1CC2=CC(=O)CC[C@]2(C)[C@H]2CC[C@]3(C)[C@@H](C(=O)CO)CC[C@H]3[C@H]12 [Example 2, 7α-Acetylthio-21-hydroxy-4-pregnene-3,20-dione] | 35% | 175 | 0.75 mg/kg | 
8 | CCCCC(=O)OCC(=O)[C@H]1CC[C@H]2[C@@H]3[C@H](SC(C)=O)CC4=CC(=O)CC[C@]4(C)[C@H]3CC[C@]12C [Example 6] | 68% | 340 | 1.5 mg/kg | 
9 | CC(=O)S[C@@H]1CC2=CC(=O)CC[C@]2(C)[C@H]2CC[C@@]3(C)[C@@H](CC[C@@]34CCC(=O)O4)[C@H]12 [Spironolactone, spironolactone, reference compound] | 18% |  | 2.5 mg/kg | ED50 (adrenalectomized rat; [4]): 10 mg/kg; Mineralocorticoid antagonism Minimum effective dose (adrenalectomized rat; [2]): 250 μg/100 g
10 | CCC(=O)S[C@@H]1CC2=CC(=O)CC[C@]2(C)[C@H]2CC[C@]3(C)[C@@H](C(=O)COC(C)=O)CC[C@H]3[C@H]12 [Control B, 7α-Propionylthio-21-acetoxy-4-pregnene-3,20-dione, reference compound] |  |  | 1 mg/kg | 
11 | CC(=O)S[C@@H]1CC2=CC(=O)CC[C@]2(C)[C@H]2CC[C@]3(C)[C@@H](C(C)=O)CC[C@H]3[C@H]12 [Example 1, 7α-Acetylthio-4-pregnene-3,20-dione] | 43% | 172 | 1 mg/kg | In vivo antagonist activity compared with corresponding 7α-propionylthio derivative (Controls A, B, C, D) (adrenalectomized rat): always more active
12 | CCCC(=O)OCC(=O)[C@H]1CC[C@H]2[C@@H]3[C@H](SC(=O)CC)CC4=CC(=O)CC[C@]4(C)[C@H]3CC[C@]12C [Control C, 7α-Propionylthio-21-butyroxy-4-pregnene-3,20-dione, reference compound] |  |  | 1.5 mg/kg | 
13 | CC(=O)OCC(=O)[C@H]1CC[C@H]2[C@@H]3[C@H](SC(C)=O)CC4=CC(=O)CC[C@]4(C)[C@H]3CC[C@]12C [Example 3, 7α-Acetylthio-21-acetoxy-4-pregnene-3,20-dione] | 65% | 325 | 0.25 mg/kg | Affinity ratio index compared with spironolactone ([1]; mineralocorticoid:androgen affinity ratio relative to spironolactone): ~40 times; Dose of spironolactone relative to compound required for equivalent mineralocorticoid antagonist effect, oral (adrenalectomized rat; oral route): four-fold; ED50 (adrenalectomized rat; [4]): 2.5 mg/kg; In vivo antagonist activity compared with corresponding 7α-propionylthio derivative (Controls A, B, C, D) (adrenalectomized rat): always more active; Effectiveness relative to spironolactone, subcutaneous (adrenalectomized rat; subcutaneous route): 10 times; Mineralocorticoid antagonism Minimum effective dose (adrenalectomized rat; [2]): 25 μg/100 g
14 | CCCC(=O)OCC(=O)[C@H]1CC[C@H]2[C@@H]3[C@H](SC(C)=O)CC4=CC(=O)CC[C@]4(C)[C@H]3CC[C@]12C [Example 5] | 60% | 300 | 0.5 mg/kg | In vivo antagonist activity compared with corresponding 7α-propionylthio derivative (Controls A, B, C, D) (adrenalectomized rat): always more active
15 | CC(=O)S[C@@H]1CC2=CC(=O)CC[C@]2(C)[C@H]2CC[C@]3(C)[C@@H](C(=O)COC(=O)C(C)(C)C)CC[C@H]3[C@H]12 [Example 8] | 45% | 300 | 0.75 mg/kg | 
